Results: US11559575B2, “Multi-epitopic peptide compounds and vaccines against leishmaniasis” (INSTITUT DE RECHERCHE POUR LE DEVELOPPEMENT, priority 2018, dated 2023)
Entries after “also recorded” stand apart in the source; their conditions may differ.

Legend:
[1] = system: HLA supertypes of class I; assay: Affinity of epitopes for HLA supertypes of class I; type: binding, human; settings: for Affinity for the HLA supertypes of class I: H2B-1 epitopes, Table 1; for Affinity for HLA supertypes of class I: LmLRAB (IA, IB, IC) epitopes, Table 2
Text: HLA molecules are highly polymorphous. This is because there exist more than 2500 HLA proteins of class I (HLA-I) and more than 1000 HLA proteins of class II (HLA-II). However, some of these HLA molecules, close in sequence and in spatial conformation, may have epitopes common to the T cells. The grouping of several thousands of HLA molecules is at the present time described in a little more than 20 or so categories, referred to as “HLA supertypes” having epitopes that are very well preserved for each supertype.

[2] = system: HLA alleles of class I; assay: Affinity of epitopes for HLA alleles of class I; type: binding, human; settings: for Affinity for the HLA alleles of class I: H2B-1 epitopes, Table 1; for Concatenation affinity for HLA allele of class I: LmLRAB (IA, IB, IC) epitopes, Table 2
Text: The multiepitopic peptide compounds (24 to 40-mer), having a high affinity with a maximized number of HLA molecules of class I and of class II, such as the affinities for the alleles HLA of class I and HLA of class II of the epitopes in the peptides of the sequences SEQ ID NO: 22, 23, 65, 66, 69, 73, 77, 96, 97, 137, 138, and 157, 185, have a high immunoprevalent potential corresponding to an optimal vaccine coverage, in particular for the populations concerned. The degree of coverage of the peptide compounds of the invention show a very high added value compared with the peptides of the prior art.

[3] = system: CD4+ T cells of a naive individual (MPL10); assay: IFN-γ ELISPOT with CD4+ T cells and autologous dendritic cells of a naive individual (long protocol, three stimulations); type: cell-based, human
Experimental: The immunogenicity was evaluated, with combinations of peptides (combination corresponding to the “Pool H”) at 1 μM for each peptide, from samplings of blood of naive individuals and according to a long protocol with at least three successive stimulations. An IFN-γ ELISPOT test for measuring the frequency of the pre-existing naive T cells and the amplitude of the specific naive T repertoire for each peptide, was performed with the CD4+ T cells and the autologous dendritic cells of a naive individual in the presence or absence of the mixture of peptides, or in the presence of each peptide individually. […] The “Pool H” combination was used either with peptides not modified at the amino-terminal end and with amidation of the carboxy-terminal end, or with peptides chemically modified by a palmitoyl tail at the amino-terminal end and with amidation of the carboxy-terminal end.
The evaluation of the immunogenicity properties of peptide compounds according to the invention in naive individuals, persons who have never been in contact with the Leishmania parasite, is an important factor in predicting the efficacy of a peptide vaccine (Kwok WW et al, 2012, Frequency of epitope-specific naive CD4(+) T cells correlates with immunodominance in the human memory repertoire; Castelli F A et al, 2007, Differential capacity of T cell priming in naive donors of promiscuous CD4+ T cell epitopes of HCV NS3 and Core proteins). Immunogenicity is evaluated in vitro by measuring the frequency of the pre-existing naive T cells and the amplitude of the naive T repertoire specific for each compound. The evaluation is carried out using blood samples from naive individuals and in accordance with a long protocol (Castelli F A, et al. 2007 as aforementioned) putting purified T lymphocytes in contact with autologous dendritic cells previously incubated with the peptides of the invention. The combination of peptides used is composed of: SEQ ID NO: 23, SEQ ID NO: 66, SEQ ID NO: 73, SEQ ID NO: 77, SEQ ID NO: 97, SEQ ID NO: 138, SEQ ID NO: 157, SEQ ID NO: 185, SEQ ID NO: B11, SEQ ID NO: B12 and SEQ ID NO: B13. The compounds were synthesized chemically without amino-terminal modification and with carboxy-terminal (peptide-NH2) amidation (NH2). After three successive stimulations at intervals of seven days of the CD4+ T cells of a naive individual (MPL10; Établissement français du sang de Toulouse), an IFN-γ ELISPOT was carried out with the cells in the presence or absence of the mixture of peptides, or in the presence of each compound individually. […] Each positive line responds to at least one of the peptides of the present invention. The MPL10-3 line responds to the peptides SEQ ID NO: 73 and SEQ ID NO: 157. The MPL10-4 line responds to the peptides SEQ ID NO: 23, SEQ ID NO: 73, SEQ ID NO: 77, SEQ ID NO: 97, SEQ ID NO: 138 and SEQ ID NO: 157. The MPL10-7 line responds to the peptides SEQ ID NO: 77, SEQ ID NO: 97 and SEQ ID NO: 157. The MPL10-8 line responds to the peptides SEQ ID NO: 66, SEQ ID NO: 73, SEQ ID NO: 97, SEQ ID NO: 138 and SEQ ID NO: 157. The MPL10-10 line responds to the peptides SEQ ID NO: 66, SEQ ID NO: 73, SEQ ID NO: 77, SEQ ID NO: 97, SEQ ID NO: 138, SEQ ID NO: 157 and SEQ ID NO: 185. And the MPL10-12 line responds to the peptides SEQ ID NO: 66, SEQ ID NO: 157 and SEQ ID NO: 185.
The evaluation of the immunogenicity properties of peptide compounds of the invention in the same naive individual (MPL10) but with chemically synthesized compounds with the addition of a palmitoylated tail at the amino-terminal end and with an NH2 group at the carboxy-terminal end (PAL-peptide-NH2) was also performed. The same combination of peptides as before was used. After three stimulations with the mixture of PAL-peptide-NH2 peptides, an IFN-g ELISPOT was carried out with the cells in the presence or absence of the mixture of peptides, or in the presence of each peptide individually. […]

[4] = MPL10-PAL-3 line, PAL-peptide-NH2
[5] = MPL10-PAL-2 line, PAL-peptide-NH2

Substance	Affinity for the HLA supertypes of class I [1]	Affinity for the HLA alleles of class I [2]	IFN-γ ELISPOT response of specific line to individual peptide ([3]; MPL10-10 line, peptide-NH2)	IFN-γ ELISPOT response of specific line to individual peptide [3, 4]	further results
SMSHRTMK (Leishmania major) [SEQ ID NO: 15]	HLA-A*03	HLA-A*03:01			
NAQMSMMER (Leishmania major) [SEQ ID NO: 14]	HLA-A*03	HLA-A*68:01,; also recorded: HLA-A*33:01,; also recorded: HLA-A*31:01			
MSHRTMKIK (Leishmania major) [SEQ ID NO: 8]	HLA-A*01/HLA-A*03,	HLA-A*30:01,; also recorded: HLA-A*03:01,; also recorded: HLA-A*11:01			
IKAINAQMSM (Leishmania major) [SEQ ID NO: 2]	HLA-B*62; also recorded: HLA-B*58,	HLA-B*57:01; also recorded: HLA-B*15:01,			
KGRSENAIVTSRKVQEEVFDLFTDVHYSEVSAKTK (Leishmania major) [SEQ ID NO: 138]			responds	responds	IFN-γ ELISPOT response of specific line to individual peptide ([3]; MPL10-4 line, peptide-NH2): responds; IFN-γ ELISPOT response of specific line to individual peptide ([3]; MPL10-8 line, peptide-NH2): responds
SMSHRTMKS (Leishmania major) [SEQ ID NO: 18]	HLA-A*02	HLA-A*02:03			
MSMSHRTMKS (Leishmania major) [SEQ ID NO: 13]	HLA-A*03	HLA-A*03:01,; also recorded: HLA-A*11:01			
SMSHRTMKIK (Leishmania major) [SEQ ID NO: 17]	HLA-A*01/HLA-; also recorded: A*03, HLA-A*03	HLA-A*03:01,; also recorded: HLA-A*11:01,; also recorded: HLA-A*30:01			
KGRLHSVVGRHLSIVADHMPHLDQ (Leishmania major) [SEQ ID NO: 97]			responds	responds	IFN-γ ELISPOT response of specific line to individual peptide ([3]; MPL10-4 line, peptide-NH2): responds; IFN-γ ELISPOT response of specific line to individual peptide ([3]; MPL10-7 line, peptide-NH2): responds; IFN-γ ELISPOT response of specific line to individual peptide ([3]; MPL10-8 line, peptide-NH2): responds
KEMPSGSDYSHMSIRDLDFSNMGLLLSGT (KEMPSGSDYSHSMIRDLDFSNMGLLLSGT; listed as Leishmania infantum) [SEQ ID NO: 185]			responds	responds	IFN-γ ELISPOT response of specific line to individual peptide ([3]; MPL10-12 line, peptide-NH2): responds; IFN-γ ELISPOT response of specific line to individual peptide [3, 5]: responds
KAINAQMSMM (Leishmania major) [SEQ ID NO: 4]	HLA-B*58,; also recorded: HLA-B*62	HLA-B*58:01,; also recorded: HLA-B*57:01,; also recorded: HLA-B*15:01			
MPHVDQSSI (Leishmania major) [SEQ ID NO: 74]					Affinity for HLA supertypes of class I [1]: HLA-B*07,; also recorded: HLA-B*08; Concatenation affinity for HLA allele of class I [2]: HLA-B*07:02,; also recorded: HLA-B*35:01,; also recorded: HLA-B*51:01,; also recorded: HLA-B*53:01,; also recorded: HLA-B*08:01
SEQ ID NO: 66: multiepitopic peptide compound of overlapping H2B epitopes of sequences SEQ ID NO: 24 to 64; sequence not printed (KGRKPKRSWNVYVGRSLKAINAQMSMSHRTMKIV; Leishmania major)			responds	responds	IFN-γ ELISPOT response of specific line to individual peptide ([3]; MPL10-8 line, peptide-NH2): responds; IFN-γ ELISPOT response of specific line to individual peptide ([3]; MPL10-12 line, peptide-NH2): responds; IFN-γ ELISPOT response of specific line to individual peptide [3, 5]: responds
NENNITGGL (MENNITGGL; Leishmania major) [SEQ ID NO: 67]					Affinity for HLA supertypes of class I [1]: HLA-B*44; Concatenation affinity for HLA allele of class I [2]: HLA-B*40:02,; also recorded: HLA-B*44:02,; also recorded: HLA-B*44:03; also recorded: HLA-B*18:01,; also recorded: HLA-B*40:01,
MSHRTMKIKA (Leishmania major) [SEQ ID NO: 9]	HLA-A*01/HLA-A*03	HLA-A*30:01			
TQGSSKAGF (Leishmania major) [SEQ ID NO: 72]					Affinity for HLA supertypes of class I [1]: HLA-B*27,; also recorded: HLA-B*62; Concatenation affinity for HLA allele of class I [2]: HLA-B*15:01,; also recorded: HLA-B*15:02
KARYRFAQGEHDIRLPENAFVIARYTQGSSKAGF (Leishmania major) [SEQ ID NO: 73]			responds	responds	IFN-γ ELISPOT response of specific line to individual peptide ([3]; MPL10-3 line, peptide-NH2): responds; IFN-γ ELISPOT response of specific line to individual peptide ([3]; MPL10-4 line, peptide-NH2): responds; IFN-γ ELISPOT response of specific line to individual peptide ([3]; MPL10-8 line, peptide-NH2): responds; IFN-γ ELISPOT response of specific line to individual peptide [3, 5]: responds
MMERICTEA (Leishmania major) [SEQ ID NO: 5]	HLA-A*02	HLA-A*02:03,; also recorded: HLA-A*02:01			
AINAQMSMM (Leishmania major) [SEQ ID NO: 1]	HLA-B*62	HLA-B*15:01			
MSMSHRTMKSMSHRTMKIKAINAQMSMMERICTEAA (Leishmania major) [SEQ ID NO: 22]					IFN-γ ELISPOT response of specific line to individual peptide [3, 5]: responds
KARYMPHVDQSSIARYASFRSTEAIRYSSIMVVANK (Leishmania major) [SEQ ID NO: 77]			responds	responds	IFN-γ ELISPOT response of specific line to individual peptide ([3]; MPL10-4 line, peptide-NH2): responds; IFN-γ ELISPOT response of specific line to individual peptide ([3]; MPL10-7 line, peptide-NH2): responds
KARYMSMSHRTMKSMSHRTMKIKAINAQMSMMERICTEAA (Leishmania major) [SEQ ID NO: 23]				responds	IFN-γ ELISPOT response of specific line to individual peptide ([3]; MPL10-4 line, peptide-NH2): responds
KAARSARSGEGYFLTDEKTSLVYGDGG (listed as Leishmania infantum) [SEQ ID NO: 157]			responds	responds	IFN-γ ELISPOT response of specific line to individual peptide ([3]; MPL10-3 line, peptide-NH2): responds; IFN-γ ELISPOT response of specific line to individual peptide ([3]; MPL10-4 line, peptide-NH2): responds; IFN-γ ELISPOT response of specific line to individual peptide ([3]; MPL10-7 line, peptide-NH2): responds; IFN-γ ELISPOT response of specific line to individual peptide ([3]; MPL10-8 line, peptide-NH2): responds; IFN-γ ELISPOT response of specific line to individual peptide ([3]; MPL10-12 line, peptide-NH2): responds; IFN-γ ELISPOT response of specific line to individual peptide [3, 5]: responds
